Results reported in ChEMBL document CHEMBL3045313, “Reduced Lantadenes A and B: semi-synthetic synthesis, selective cytotoxicity, apoptosis induction and inhibition of NO, TNF- production in HL-60 cells” (Med Chem Res, 2013).
Activity calls are given as the source filed them. The calls are words filed in the database; no cut-off is given here.

Tests used:
HL-60 [1] = test: Inhibition of nitrite production in Homo sapiens (human) HL60 cells at 5 to 15 uM after 12 hr by Griess assay; assay type: functional, cell-based
MCF7 = test: Cytotoxicity against Homo sapiens (human) MCF7 cells assessed as growth inhibition after 48 hr by MTT assay; assay type: functional, cell-based; settings: MCF7, 48 h
HL-60 [2] = test: Cytotoxicity against Homo sapiens (human) HL60 cells assessed as growth inhibition after 48 hr by MTT assay; assay type: functional, cell-based; settings: HL-60, 48 h
HCT-116 = test: Cytotoxicity against Homo sapiens (human) HCT116 cells assessed as growth inhibition after 48 hr by MTT assay; assay type: functional, cell-based; settings: HCT-116, 48 h
HSC-2 = test: Cytotoxicity against Homo sapiens (human) HSC2 cells assessed as growth inhibition after 48 hr by MTT assay; assay type: functional, cell-based; settings: HSC-2, 48 h
Vero = test: Cytotoxicity against Chlorocebus aethiops (African green monkey) Vero cells assessed as growth inhibition after 48 hr by MTT assay; assay type: cell-based; settings: Chlorocebus sabaeus
HL-60 [3] = test: Cell cycle arrest in Homo sapiens (human) HL60 cells assessed as accumulation at G2/M phase at 15 uM after 9 hr by propidium iodide staining-based FACS flow cytometric analysis (reference value: 9 +/- 1.2%); assay type: functional
HL-60 [4] = test: Cell cycle arrest in Homo sapiens (human) HL60 cells assessed as accumulation at S phase at 15 uM after 3 hr by propidium iodide staining-based FACS flow cytometric analysis (reference value: 56.8 +/- 2.4%); assay type: functional
HL-60 [5] = test: Cell cycle arrest in Homo sapiens (human) HL60 cells assessed as accumulation at G0/G1 phase at 15 uM after 3 hr by propidium iodide staining-based FACS flow cytometric analysis (reference value: 36.2 +/- 2.4%); assay type: functional
HL-60 [6] = test: Cell cycle arrest in Homo sapiens (human) HL60 cells assessed as accumulation at G2/M phase at 15 uM after 12 hr by propidium iodide staining-based FACS flow cytometric analysis (reference value: 8.2 +/- 0.4%)
HL-60 [7] = test: Cell cycle arrest in Homo sapiens (human) HL60 cells assessed as accumulation at sub-G1 phase at 15 uM after 9 hr by propidium iodide staining-based FACS flow cytometric analysis (reference value: 0.1%); assay type: functional
HL-60 [8] = test: Cell cycle arrest in Homo sapiens (human) HL60 cells assessed as accumulation at S phase at 15 uM after 6 hr by propidium iodide staining-based FACS flow cytometric analysis (reference value: 56.8 +/- 2.4%); assay type: functional
HL-60 [9] = test: Downregulation of iNOS expression in Homo sapiens (human) HL60 cells at 15 uM after 4 hr by RT-PCR analysis relative to control; assay type: functional, cell-based
HL-60 [10] = test: Cell cycle arrest in Homo sapiens (human) HL60 cells assessed as accumulation at G0/G1 phase at 15 uM after 6 hr by propidium iodide staining-based FACS flow cytometric analysis (reference value: 36.2 +/- 2.4%); assay type: functional
HL-60 [11] = test: Cell cycle arrest in Homo sapiens (human) HL60 cells assessed as accumulation at G2/M phase at 15 uM after 6 hr by propidium iodide staining-based FACS flow cytometric analysis (reference value: 9 +/- 1.2%); assay type: functional
HL-60 [12] = test: Cell cycle arrest in Homo sapiens (human) HL60 cells assessed as accumulation at S phase at 15 uM after 9 hr by propidium iodide staining-based FACS flow cytometric analysis (reference value: 56.8 +/- 2.4%); assay type: functional
HL-60 [13] = test: Cell cycle arrest in Homo sapiens (human) HL60 cells assessed as accumulation at sub-G1 phase at 15 uM after 6 hr by propidium iodide staining-based FACS flow cytometric analysis (reference value: 0.1%); assay type: functional
HL-60 [14] = test: Downregulation of bcl-2 expression in Homo sapiens (human) HL60 cells at 15 uM after 4 hr by RT-PCR analysis; assay type: functional, cell-based
HL-60 [15] = test: Downregulation of NF-kappaB expression in Homo sapiens (human) HL60 cells at 15 uM after 4 hr by RT-PCR analysis; assay type: functional, cell-based
HL-60 [16] = test: Inhibition of nitrite production in Homo sapiens (human) HL60 cells after 12 hr by Griess assay; assay type: functional, cell-based
HL-60 [17] = test: Cell cycle arrest in Homo sapiens (human) HL60 cells assessed as accumulation at G0/G1 phase at 15 uM after 12 hr by propidium iodide staining-based FACS flow cytometric analysis (reference value: 36.2 +/- 2.4%); assay type: functional
HL-60 [18] = test: Inhibition of TNFalpha production in Homo sapiens (human) HL60 cells after 6 hr by ELISA; assay type: functional, cell-based
HL-60 [19] = test: Downregulation of iNOS expression in Homo sapiens (human) HL60 cells after 12 hr by scanning densitometric analysis; assay type: functional, cell-based
HL-60 [20] = test: Cell cycle arrest in Homo sapiens (human) HL60 cells assessed as accumulation at sub-G1 phase at 15 uM after 3 hr by propidium iodide staining-based FACS flow cytometric analysis (reference value: 0.1%); assay type: functional
HL-60 [21] = test: Induction of apoptosis in Homo sapiens (human) HL60 cells assessed as caspase 3 activation at 15 uM after 24 hr by colorimetric analysis; assay type: functional, cell-based
HL-60 [22] = test: Cell cycle arrest in Homo sapiens (human) HL60 cells assessed as accumulation at sub-G1 phase at 15 uM after 12 hr by propidium iodide staining-based FACS flow cytometric analysis (reference value: 0.1%); assay type: functional
HL-60 [23] = test: Cell cycle arrest in Homo sapiens (human) HL60 cells assessed as accumulation at G2/M phase at 15 uM after 3 hr by propidium iodide staining-based FACS flow cytometric analysis (reference value: 9 +/- 1.2%); assay type: functional
HL-60 [24] = test: Induction of apoptosis in Homo sapiens (human) HL60 cells assessed as DNA fragmentation at 15 uM after 24 hr by hoechst 33258 staining-based fluorescence microscopic analysis relative to control; assay type: functional, cell-based
HL-60 [25] = test: Cell cycle arrest in Homo sapiens (human) HL60 cells assessed as accumulation at G0/G1 phase at 15 uM after 9 hr by propidium iodide staining-based FACS flow cytometric analysis (reference value: 36.2 +/- 2.4%); assay type: functional
HL-60 [26] = test: Upregulation of caspase-3 expression in Homo sapiens (human) HL60 cells at 15 uM after 4 hr by RT-PCR analysis; assay type: functional, cell-based
HL-60 [27] = test: Induction of apoptosis in Homo sapiens (human) HL60 cells assessed as appearance of apoptotic bodies at 15 uM after 24 hr by hoechst 33258 staining-based fluorescence microscopic analysis relative to control; assay type: functional, cell-based
HL-60 [28] = test: Upregulation of bax expression in Homo sapiens (human) HL60 cells at 15 uM after 4 hr by RT-PCR analysis; assay type: functional, cell-based
HL-60 [29] = test: Cell cycle arrest in Homo sapiens (human) HL60 cells assessed as accumulation at S phase at 15 uM after 12 hr by propidium iodide staining-based FACS flow cytometric analysis (reference value: 56.8 +/- 2.4%); assay type: functional

SMILES	IC50 (MCF7)	IC50 (HL-60 [2])	IC50 (HCT-116)	IC50 (HSC-2)	IC50 (Vero)	Activity (HL-60 [3])	Activity (HL-60 [4])	Activity (HL-60 [5])	Activity (HL-60 [6])	Activity (HL-60 [8])	Activity (HL-60 [9])	Activity (HL-60 [10])	Activity (HL-60 [11])	Activity (HL-60 [12])	Activity (HL-60 [13])	Activity (HL-60 [14])	Activity (HL-60 [15])	inhibition (HL-60 [16])	Activity (HL-60 [17])	inhibition (HL-60 [18])	further results
CNC(=N)NCCC[C@H](N)C(=O)O	–	–	–	–	–	–	–	–	–	–	–	–	–	–	–	–	–	–	–	–	inhibition (HL-60 [1]): Active
C/C=C(/C)C(=O)O[C@@H]1CC(C)(C)C[C@H]2C3=CC[C@@H]4[C@@]5(C)CCC(=O)C(C)(C)[C@@H]5CC[C@@]4(C)[C@]3(C)CC[C@@]12C(=O)O [LANTADENE A]	25.8 µM	19.3 µM	13.4 µM	50.7 µM	> 50 µM	–	–	–	–	–	–	–	–	–	–	–	–	–	–	–	–
CC(C)=CC(=O)O[C@@H]1CC(C)(C)C[C@@H]2C3=CC[C@@H]4[C@@]5(C)CCC(=O)C(C)(C)[C@@H]5CC[C@@]4(C)[C@]3(C)CC[C@]21C(=O)O [LANTADENE B]	81.4 µM	19.1 µM	13.2 µM	43 µM	> 50 µM	–	–	–	–	–	–	–	–	–	–	–	–	–	–	–	–
C/C=C(/C)C(=O)O[C@@H]1CC(C)(C)C[C@H]2C3=CC[C@@H]4[C@@]5(C)CC[C@H](O)C(C)(C)[C@@H]5CC[C@@]4(C)[C@]3(C)CC[C@@]12C(=O)O [Reduced Lantadene A]	6 µM	1.5 µM	1.2 µM	6.1 µM	> 50 µM	20.8%	57%	34.4%	42%	64.2%	Active	20.8%	15.8%	63.6%	0.4%	Active	Active	Dose-dependent effect	15.4%	Dose-dependent effect	Activity (HL-60 [7]): 1.2%; Activity (HL-60 [19]): Dose-dependent effect; Activity (HL-60 [20]): 0.2%; Activity (HL-60 [21]): Active; Activity (HL-60 [22]): 3.2%; Activity (HL-60 [23]): 8.4%; Activity (HL-60 [24]): Dose-dependent effect; Activity (HL-60 [25]): 14%; Activity (HL-60 [26]): Active; Activity (HL-60 [27]): Active; Activity (HL-60 [28]): Active; Activity (HL-60 [29]): 44.8%
CC(C)=CC(=O)O[C@@H]1CC(C)(C)C[C@H]2C3=CC[C@@H]4[C@@]5(C)CC[C@H](O)C(C)(C)[C@@H]5CC[C@@]4(C)[C@]3(C)CC[C@@]12C(=O)O [Reduced Lantadene B]	5.2 µM	2.1 µM	1.8 µM	6.4 µM	> 50 µM	19.9%	55.1%	32.8%	40.8%	62.1%	Active	18.2%	14.8%	61.6%	0.5%	Active	Active	Dose-dependent effect	13.9%	Dose-dependent effect	Activity (HL-60 [19]): Dose-dependent effect; Activity (HL-60 [20]): 0.3%; Activity (HL-60 [21]): Active; Activity (HL-60 [22]): 3.4%; Activity (HL-60 [23]): 7.4%; Activity (HL-60 [24]): Dose-dependent effect; Activity (HL-60 [25]): 12.6%; Activity (HL-60 [26]): Active; Activity (HL-60 [27]): Active; Activity (HL-60 [28]): Active; Activity (HL-60 [29]): 42.1%
